Results from patent US4416884A, “Piperazinylbenzoheterocyclic compounds” (Otsuka Pharmaceutical Co., Ltd., priority 1978, dated 1983).
Values after ≈ are worked out from the molar mass of the structure shown. Counter-ions that a name gives are not always drawn. Like-named read-outs stand apart in the source and are kept apart here.

Assays:
Test in all cases: antimicrobial activity, serial dilution method on agar plate
Assay type in all cases: cell-based
[1] = test system: Pseudomonas aeruginosa NCTC 10490
Experimental: (§1) The antimicrobial activity of the following test compounds on various test organisms listed below was determined by the serial dilution method on agar plate (Heart Infusion agar produced by Difco Co.) (see CHEMOTHERAPY 22, pp. 1126-1128 (1974)), and the minimum inhibitory concentrations (mcg/ml) obtained are shown in Table 1 below.
(§2) A sample of each test organism was prepared so that the population of the organism was 1×10^8 cells/ml (O.D. 660 mμ=0.07 to 0.16) and 1×10^6 cells/ml (which was obtained by diluting the above 1×10^8 cells/ml preparation).

Klebsiella pneumoniae = test system: Klebsiella pneumoniae
Experimental: as §1, §2

[2] = test system: Staphylococcus aureus FDA 209 P
Experimental: as §1, §2

[3] = test system: Pseudomonas aeruginosa E-2
Experimental: as §1, §2

[4] = test system: Salmonella typhi 0-901 (NCTC 8393); details: Salmonella enterica
Experimental: as §1, §2

Shigella Sonnei EW 33 = details: read-out: Minimum Inhibitory Concentration
Experimental: as §1, §2

Escherichia Coli NIHJ = details: inoculum 1 × 10^8 cells/ml, read-out: Minimum Inhibitory Concentration
Experimental: as §1, §2

[5] = test system: Pseudomonas aeruginosa ATCC 10145
Experimental: as §1, §2

[6] = test system: Serattia marcescens IFO 12648
Experimental: as §1, §2

Proteus rettgeri NIH 96 = details: Providencia rettgeri
Experimental: as §1, §2

[7] = test system: Escherichia Coli NIHJ JC-2 (IFO 12734); details: Escherichia coli, read-out: Minimum Inhibitory Concentration
Experimental: as §1, §2

[8] = test system: Streptococcus pyogenes IID S-23
Experimental: as §1, §2

[9] = NCTC10490, inoculum 1 × 10^8 cells/ml, read-out: Minimum Inhibitory Concentration
[10] = read-out: Minimum Inhibitory Concentration, inoculum 1 × 10^8 cells/ml
[11] = FDA209, inoculum 1 × 10^8 cells/ml, read-out: Minimum Inhibitory Concentration
[12] = E2, inoculum 1 × 10^8 cells/ml, read-out: Minimum Inhibitory Concentration
[13] = ATCC10145, read-out: Minimum Inhibitory Concentration, inoculum 1 × 10^8 cells/ml
[14] = inoculum 1 × 10^8 cells/ml, read-out: Minimum Inhibitory Concentration
[15] = NIH96, inoculum 1 × 10^8 cells/ml, read-out: Minimum Inhibitory Concentration
[16] = NCTC10490, inoculum 1 × 10^6 cells/ml, read-out: Minimum Inhibitory Concentration
[17] = inoculum 1 × 10^6 cells/ml, read-out: Minimum Inhibitory Concentration
[18] = FDA209, inoculum 1 × 10^6 cells/ml, read-out: Minimum Inhibitory Concentration
[19] = E2, inoculum 1 × 10^6 cells/ml, read-out: Minimum Inhibitory Concentration
[20] = read-out: Minimum Inhibitory Concentration, inoculum 1 × 10^6 cells/ml
[21] = IIDS23, inoculum 1 × 10^6 cells/ml, read-out: Minimum Inhibitory Concentration
[22] = IIDS23, inoculum 1 × 10^8 cells/ml, read-out: Minimum Inhibitory Concentration
[23] = ATCC10145, inoculum 1 × 10^6 cells/ml, read-out: Minimum Inhibitory Concentration
[24] = ATCC10145, inoculum 1 × 10^8 cells/ml, read-out: Minimum Inhibitory Concentration
[25] = NIH96, inoculum 1 × 10^6 cells/ml, read-out: Minimum Inhibitory Concentration
[26] = IIDS23, read-out: Minimum Inhibitory Concentration, inoculum 1 × 10^8 cells/ml

Compound | MIC [1, 9] [µg/mL] | MIC (Klebsiella pneumoniae; [10]) [µg/mL] | MIC [2, 11] [µg/mL] | MIC [3, 12] [µg/mL] | MIC [4, 10] [µg/mL] | MIC (Shigella Sonnei EW 33; inoculum 1 × 10^8 cells/ml) [µg/mL] | MIC [5, 13] [µg/mL] | MIC [6, 14] [µg/mL] | MIC (Proteus rettgeri NIH 96; [15]) [µg/mL] | MIC [1, 16] [µg/mL] | MIC (Klebsiella pneumoniae; [17]) [µg/mL] | MIC (Klebsiella pneumoniae; [14]) [µg/mL] | MIC ([7]; inoculum 1 × 10^6 cells/ml) [µg/mL] | MIC ([7]; inoculum 1 × 10^8 cells/ml) [µg/mL] | MIC [2, 18] [µg/mL] | MIC [3, 19] [µg/mL] | MIC [4, 20] [µg/mL] | MIC (Shigella Sonnei EW 33; inoculum 1 × 10^6 cells/ml) [µg/mL] | MIC [8, 22] [µg/mL] | MIC [5, 24] [µg/mL] | further results
CC(=O)N1CCN(c2ccc3c(=O)c(C(=O)NC(C(=O)NC4C(=O)N5C4SC(C)(C)C5C(=O)O)c4ccccc4)cn4c3c2CCC4)CC1 (stereo not drawn) [H] | 3.1 (≈ 4.51 µM) | 12.5 (≈ 18.2 µM) | 1.6 (≈ 2.33 µM) | 25 (≈ 36.4 µM) | 6.3 (≈ 9.17 µM) | 12.5 (≈ 18.2 µM) | 12.5 (≈ 18.2 µM) | 50 (≈ 72.8 µM) | 25 (≈ 36.4 µM) | – | – | – | – | – | – | – | – | – | – | – | MIC (Escherichia Coli NIHJ): 6.3 µg/mL (≈ 9.17 µM)
CC1Cc2c(N3CCN(C)CC3)c(F)cc3c(=O)c(C(=O)O)cn1c23 (stereo not drawn) [a] | 1.6 (≈ 4.63 µM) | – | 0.8 (≈ 2.32 µM) | 1.6 (≈ 4.63 µM) | ≤ 0.05 | 0.1 (≈ 0.29 µM) | – | 0.2 (≈ 0.579 µM) | 0.2 (≈ 0.579 µM) | 1.6 (≈ 4.63 µM) | 0.2 (≈ 0.579 µM) | 0.2 (≈ 0.579 µM) | 0.1 (≈ 0.29 µM) | 0.1 (≈ 0.29 µM) | 0.4 (≈ 1.16 µM) | 1.6 (≈ 4.63 µM) | ≤ 0.05 | 0.1 (≈ 0.29 µM) | 6.3 (≈ 18.2 µM) | 1.6 (≈ 4.63 µM) | MIC [8, 21]: 3.1 µg/mL (≈ 8.98 µM); MIC [5, 23]: 1.6 µg/mL (≈ 4.63 µM); MIC [6, 17]: 0.2 µg/mL (≈ 0.579 µM); MIC (Proteus rettgeri NIH 96; [25]): 0.1 µg/mL (≈ 0.29 µM)
CC1CCc2c(N3CCNCC3)c(F)cc3c(=O)c(C(=O)O)cn1c23 (stereo not drawn) [Compound X, 8-(1-Piperazinyl)-9-fluoro-5-methyl-6,7-dihydro-1-oxo-1H,5H--benzo[ij]quinolizine-2-carboxylic acid hydrobromide] | – | 0.4 | – | – | – | 0.2 | 1.6 | – | – | – | – | – | – | – | – | – | – | – | – | – | MIC ([1]; NCTC10490, read-out: Minimum Inhibitory Concentration, inoculum 1 × 10^8 cells/ml): 1.6 µg/mL; MIC [7]: 0.4 µg/mL; MIC ([2]; FDA209, read-out: Minimum Inhibitory Concentration, inoculum 1 × 10^8 cells/ml): 0.8 µg/mL; MIC ([3]; E2, read-out: Minimum Inhibitory Concentration, inoculum 1 × 10^8 cells/ml): 1.6 µg/mL; MIC [4, 14]: 0.1 µg/mL; MIC [8, 26]: 3.1 µg/mL; MIC [6, 10]: 0.8 µg/mL; MIC (Proteus rettgeri NIH 96; NIH96, read-out: Minimum Inhibitory Concentration, inoculum 1 × 10^8 cells/ml): 0.1 µg/mL
C#CCN1CCN(c2c(Cl)cc3c(=O)c(C(=O)O)cn4c3c2CCC4C)CC1 (stereo not drawn) [i] | 12.5 (≈ 31.3 µM) | – | 0.39 (≈ 0.975 µM) | 25 (≈ 62.5 µM) | 0.78 (≈ 1.95 µM) | 1.56 (≈ 3.9 µM) | – | 0.78 (≈ 1.95 µM) | 0.2 (≈ 0.5 µM) | – | – | 0.78 (≈ 1.95 µM) | – | – | – | – | – | – | – | 12.5 (≈ 31.3 µM) | MIC [7]: 1.56 µg/mL (≈ 3.9 µM); MIC [8, 26]: 1.56 µg/mL (≈ 3.9 µM)
CC1CCc2c(N3CCN(CCO)CC3)c(F)cc3c(=O)c(C(=O)O)cn1c23 (stereo not drawn) [f] | 12.5 (≈ 32.1 µM) | – | 0.78 (≈ 2 µM) | 12.5 (≈ 32.1 µM) | 0.39 (≈ 1 µM) | 0.78 (≈ 2 µM) | – | 0.39 (≈ 1 µM) | 0.2 (≈ 0.514 µM) | – | – | 0.78 (≈ 2 µM) | – | 0.39 (≈ 1 µM) | – | – | – | – | 3.13 (≈ 8.04 µM) | 6.25 (≈ 16 µM) | –
CC1CCc2c(N3CCN(C)CC3)c(F)cc3c(=O)c(C(=O)O)cn1c23 (stereo not drawn) [Compound W, 8-(4-Methyl-1-piperazinyl)-9-fluoro-5-methyl-6,7-dihydro-1-oxo-1H,5H--benzo[ij]-quinolizine-2-carboxylic acid] | 1.6 (≈ 4.45 µM) | – | 0.4 (≈ 1.11 µM) | 6.3 (≈ 17.5 µM) | 0.1 (≈ 0.278 µM) | 0.2 (≈ 0.556 µM) | – | 0.4 (≈ 1.11 µM) | 0.4 (≈ 1.11 µM) | 1.6 (≈ 4.45 µM) | 0.2 (≈ 0.556 µM) | 0.4 (≈ 1.11 µM) | 0.4 (≈ 1.11 µM) | 0.4 (≈ 1.11 µM) | 0.4 (≈ 1.11 µM) | 3.1 (≈ 8.63 µM) | ≤ 0.05 | 0.2 (≈ 0.556 µM) | 1.6 (≈ 4.45 µM) | 3.1 (≈ 8.63 µM) | MIC [8, 21]: 1.6 µg/mL (≈ 4.45 µM); MIC [5, 23]: 1.6 µg/mL (≈ 4.45 µM); MIC [6, 17]: 0.4 µg/mL (≈ 1.11 µM); MIC (Proteus rettgeri NIH 96; [25]): 0.4 µg/mL (≈ 1.11 µM)
